In PMC12396409, “Screening and hit evaluation of a microbial metabolite library against the pathogenic Plasmodium falciparum and Toxoplasma gondii parasites” (International Journal for Parasitology: Drugs and Drug …, 2025):
Like-named read-outs stand apart in the source and are kept apart here.

Columns and labels:
[1] = system: P. falciparum 3D7 parasites; experiment: P. falciparum growth inhibition assay, 2-cycle (120 h treatment), delayed-death screen and dose-response; format: cell-based, Plasmodium falciparum; conditions: for activity at 2 µg/mL: Plasmodium falciparum, 3D7, 120 h
[2] = system: T. gondii RH strain (RH-Tub-eYFP) tachyzoites; experiment: microbe, parasite or virus in culture; format: cell-based, Toxoplasma gondii; conditions: 72 h; for percent parasite growth at 2 µg/mL: Toxoplasma gondii; for Mean / Replicate 1 / Replicate 2: 2 μg/mL; for Mean: mean of both replicates, growth (% of control); for Replicate 1 / Replicate 2: values are growth (% of control)
[3] = system: P. falciparum 3D7 parasites; experiment: P. falciparum growth inhibition assay, 1-cycle (72 h treatment), SYBR DNA staining (library screen at 2 μg/mL and dose-response); format: cell-based, Plasmodium falciparum; conditions: for activity at 2 µg/mL: Plasmodium falciparum
[4] = P. falciparum, 120 h, screen at 2 μg/mL, replicate 1
[5] = P. falciparum, 120 h, screen at 2 μg/mL, replicate 2
[6] = T. gondii, screen at 2 μg/mL, replicate 1
[7] = T. gondii, screen at 2 μg/mL, replicate 2
[8] = P. falciparum, 72 h, screen at 2 μg/mL, replicate 1
[9] = P. falciparum, 72 h, screen at 2 μg/mL, replicate 2
[10] = P. falciparum, 120 h, parasite screen 2 μg/mL, % growth, replicate 1
[11] = P. falciparum, 120 h, parasite screen 2 μg/mL, % growth, replicate 2
[12] = T. gondii, parasite screen 2 μg/mL, % growth, replicate 1
[13] = T. gondii, parasite screen 2 μg/mL, % growth, replicate 2
[14] = P. falciparum, 72 h, parasite screen 2 μg/mL, % growth, replicate 1
[15] = P. falciparum, 72 h, parasite screen 2 μg/mL, % growth, replicate 2
[16] = library screen at 2 μg/mL, 120 h, % growth, replicate 1
[17] = library screen at 2 μg/mL, 120 h, % growth, replicate 2
[18] = library screen at 2 μg/mL, % growth, replicate 1
[19] = library screen at 2 μg/mL, % growth, replicate 2
[20] = library screen at 2 μg/mL, 72 h, % growth, replicate 1
[21] = library screen at 2 μg/mL, 72 h, % growth, replicate 2
[22] = P. falciparum, 120 h, parasite screen 2 μg/mL, % growth, replicate 1, read-out: Pf_120h_%Growth_Rep1
[23] = P. falciparum, 120 h, parasite screen 2 μg/mL, % growth, replicate 2, read-out: Pf_120h_%Growth_Rep2
[24] = T. gondii, parasite screen 2 μg/mL, % growth, replicate 1, read-out: Tg_72h_%Growth_Rep1
[25] = T. gondii, parasite screen 2 μg/mL, % growth, replicate 2, read-out: Tg_72h_%Growth_Rep2
[26] = 3D7, 72 h, P. falciparum, 72 h, parasite screen 2 μg/mL, % growth, replicate 1, read-out: Pf_72h_%Growth_Rep1
[27] = 3D7, 72 h, P. falciparum, 72 h, parasite screen 2 μg/mL, % growth, replicate 2, read-out: Pf_72h_%Growth_Rep2

CC(/C=C/C(=O)NO)=C\[C@@H](C)C(=O)c1ccc(N(C)C)cc1 [trichostatin A, reference compound]
Pf_120h_%Growth_Rep1 [1, 4]: 8.88%
Pf_120h_%Growth_Rep2 [1, 5]: 11.39%
Tg_72h_%Growth_Rep1 [2, 6]: 0.84%
Tg_72h_%Growth_Rep2 [2, 7]: 0.67%
activity in the screen against P. falciparum ([3]; 2 μg/mL, 72 h, active = ≥80 % growth inhibition): active
Pf_72h_%Growth_Rep1 [3, 8]: 1.39%
Pf_72h_%Growth_Rep2 [3, 9]: -9.74%

COC1C(O)CC(=O)OC(C)CC=CC=CC(O)C(C)CC(CC=O)C1OC1OC(C)C(OC2CC(C)(O)C(OC(=O)CC(C)C)C(C)O2)C(N(C)C)C1O (stereo not drawn) [BIA-L1538]
Pf_120h_%Growth_Rep1 ([1]; P. falciparum 3D7, 120 h, library screen at 2 μg/mL, % growth, replicate 1): 5.60%
Pf_120h_%Growth_Rep2 ([1]; P. falciparum 3D7, 120 h, library screen at 2 μg/mL, % growth, replicate 2): 17.51%
Tg_72h_%Growth_Rep1 ([2]; T. gondii RH, library screen at 2 μg/mL, % growth, replicate 1): 16.93%
Tg_72h_%Growth_Rep2 ([2]; T. gondii RH, library screen at 2 μg/mL, % growth, replicate 2): 20.94%
Pf_72h_%Growth_Rep1 ([3]; P. falciparum 3D7, 72 h, library screen at 2 μg/mL, % growth, replicate 1): 49.92%
Pf_72h_%Growth_Rep2 ([3]; P. falciparum 3D7, 72 h, library screen at 2 μg/mL, % growth, replicate 2): 67.33%

Cc1cc(O)c(C=O)c2c1C(=O)Oc1c(CO)c(O)c3c(c1O2)C(O)OC3=O (stereo not drawn) [Salazinic acid]
Pf_120h_%Growth_Rep1 [1, 10]: 77.56%
Pf_120h_%Growth_Rep2 [1, 11]: 74.04%
Tg_72h_%Growth_Rep1 [2, 12]: 117.03%
Tg_72h_%Growth_Rep2 [2, 13]: 97.23%
Pf_72h_%Growth_Rep1 [3, 14]: 86.18%
Pf_72h_%Growth_Rep2 [3, 15]: 54.69%

CO[C@@H]1[C@@H](OC(N)=O)[C@@H](O)[C@H](Oc2ccc3c(O)c(NC(=O)c4ccc(O)c(CCC(C)C)c4)c(=O)oc3c2C)OC1(C)C [Dihydronovobiocin]
Pf_120h_%Growth_Rep1 [1, 16]: 93.97%
Pf_120h_%Growth_Rep2 [1, 17]: 91.59%
Tg_72h_%Growth_Rep1 [2, 18]: 162.91%
Tg_72h_%Growth_Rep2 [2, 19]: 101.29%
Pf_72h_%Growth_Rep1 [3, 20]: 88.16%
Pf_72h_%Growth_Rep2 [3, 21]: 85.96%

O=C1C=C2C=C[C@@H]3C[C@@]2(O1)[C@H]1CCCCN31 [Securinine]
activity at 2 µg/mL [1, 22]: 14.2%
activity at 2 µg/mL [1, 23]: 10.7%
percent parasite growth at 2 µg/mL [2, 24]: 46.1%
percent parasite growth at 2 µg/mL [2, 25]: 60.2%
activity at 2 µg/mL [3, 26]: 19.3%
activity at 2 µg/mL [3, 27]: 10.7%

CC(C)C[C@@H]1NC(=O)[C@H](Cc2c[nH]c3ccccc23)NC1=O [Cyclo(L-Leu-L-Trp)]
Pf_120h_%Growth_Rep1 [1, 4]: 80.44%
Pf_120h_%Growth_Rep2 [1, 5]: 87.76%
Tg_72h_%Growth_Rep1 [2, 6]: 106.88%
Tg_72h_%Growth_Rep2 [2, 7]: 106.90%
Pf_72h_%Growth_Rep1 [3, 8]: 84.12%
Pf_72h_%Growth_Rep2 [3, 9]: 86.68%

CC[C@H]1CCC[C@H](O)[C@@H](C)C(=O)C2=C[C@H]3[C@@H]4C[C@H](O)C[C@H]4CC[C@H]3[C@@H]2CC(=O)O1 [Dihydrospinosyn A aglycone]
Pf_120h_%Growth_Rep1 [1, 16]: 88.50%
Pf_120h_%Growth_Rep2 [1, 17]: 102.89%
Tg_72h_%Growth_Rep1 [2, 18]: 141.87%
Tg_72h_%Growth_Rep2 [2, 19]: 82.63%
IC50 ([3]; 3D7, 72 h treatment, mean ± S.D., n ≥ 3, read-out: IC50 (μM), P. falciparum): > 1 µM
Screen (P. falciparum) ([3]; library screen at 2 μg/mL, 3D7, 72 h, DD from the 120 h timepoint): I
Pf_72h_%Growth_Rep1 [3, 20]: 96.92%
Pf_72h_%Growth_Rep2 [3, 21]: 105.46%

COC(=O)[C@]12Oc3cc(C)c(-c4c(C)cc5c(c4O)C(=O)C4=C(O)CC[C@H](O)[C@@]4(C(=O)OC)O5)c(O)c3C(=O)C1=C(O)CC[C@@H]2O [Rugulotrosin A]
activity at 2 µg/mL [1, 22]: 69.8%
activity at 2 µg/mL [1, 23]: 107%
percent parasite growth at 2 µg/mL [2, 24]: 118%
percent parasite growth at 2 µg/mL [2, 25]: 86.1%
activity at 2 µg/mL [3, 26]: 69.8%
activity at 2 µg/mL [3, 27]: 106%

COC1/C=C\C=C(/C)C(=O)NC2=CC(=O)C(NCCN(C)C)=C(C[C@@H](C)C[C@H](OC)[C@H](O)[C@@H](C)/C=C(\C)[C@@H]1OC(N)=O)C2=O (stereo partly drawn)
Pf_120h_%Growth_Rep1 [1, 16]: 10.33%
Pf_120h_%Growth_Rep2 [1, 17]: 2.04%
Tg_72h_%Growth_Rep1 [2, 18]: -1.12%
Tg_72h_%Growth_Rep2 [2, 19]: -0.16%
Pf_72h_%Growth_Rep1 [3, 20]: 11.89%
Pf_72h_%Growth_Rep2 [3, 21]: -0.93%

C=C(C)[C@H](C)CC[C@](C)(O)[C@H]1CC[C@]2(C)[C@@H]1CC[C@@H]1[C@@]3(C)CC[C@H](O)C(C)(C)[C@@H]3CC[C@]12C [Carnaubadiol]
Pf_120h_%Growth_Rep1 [1, 4]: 92.23%
Pf_120h_%Growth_Rep2 [1, 5]: 87.62%
Tg_72h_%Growth_Rep1 [2, 6]: 149.01%
Tg_72h_%Growth_Rep2 [2, 7]: 97.97%
Pf_72h_%Growth_Rep1 [3, 8]: 84.27%
Pf_72h_%Growth_Rep2 [3, 9]: 81.18%

CCCCCCCCCC(=O)N[C@H]1[C@H](Oc2c3cc4cc2Oc2ccc(cc2Cl)[C@@H](O[C@@H]2O[C@H](CO)[C@@H](O)[C@H](O)[C@H]2NC(C)=O)[C@@H]2NC(=O)[C@H](NC(=O)[C@@H]4NC(=O)[C@H]4NC(=O)[C@H](Cc5ccc(c(Cl)c5)O3)NC(=O)[C@H](N)c3ccc(O)c(c3)Oc3cc(O)cc4c3)c3ccc(O)c(c3)-c3c(O[C@H]4O[C@H](CO)[C@@H](O)[C@H](O)[C@@H]4O)cc(O)cc3[C@@H](C(=O)O)NC2=O)O[C@H](CO)[C@@H](O)[C@@H]1O [Teicoplanin A2-3]
activity at 2 µg/mL [1, 22]: 110%
activity at 2 µg/mL [1, 23]: 97%
percent parasite growth at 2 µg/mL [2, 24]: 112%
percent parasite growth at 2 µg/mL [2, 25]: 84.1%
activity at 2 µg/mL [3, 26]: 88.9%
activity at 2 µg/mL [3, 27]: 128%

CN(C)c1ccc(O)c2c1C[C@H]1C[C@H]3[C@H](N(C)C)C(O)=C(C(N)=O)C(=O)[C@@]3(O)C(O)=C1C2=O.Cl [BIA-M1472]
Pf_120h_%Growth_Rep1 ([1]; P. falciparum 3D7, 120 h, parasite screen at 2 μg/mL, % growth, replicate 1): 1.23%
Pf_120h_%Growth_Rep2 ([1]; P. falciparum 3D7, 120 h, parasite screen at 2 μg/mL, % growth, replicate 2): 73.75%
Tg_72h_%Growth_Rep1 ([2]; T. gondii, parasite screen at 2 μg/mL, % growth, replicate 1): 5.81%
Tg_72h_%Growth_Rep2 ([2]; T. gondii, parasite screen at 2 μg/mL, % growth, replicate 2): 37.51%
Pf_72h_%Growth_Rep1 ([3]; P. falciparum 3D7, 72 h, parasite screen at 2 μg/mL, % growth, replicate 1): 19.15%
Pf_72h_%Growth_Rep2 ([3]; P. falciparum 3D7, 72 h, parasite screen at 2 μg/mL, % growth, replicate 2): 16.74%

Cc1cc2nc3c(=O)[nH]c(=O)nc-3n(C[C@H](O)[C@H](O)[C@H](O)CO)c2cc1N(C)C [Roseoflavin]
Pf_120h_%Growth_Rep1 [1, 10]: 4.42%
Pf_120h_%Growth_Rep2 [1, 11]: 7.07%
Mean ([2]; T. gondii): 28.14
Replicate 1 ([2]; T. gondii): 40.04
Replicate 2 ([2]; T. gondii): 16.23
Tg_72h_%Growth_Rep1 [2, 12]: 40.04%
Tg_72h_%Growth_Rep2 [2, 13]: 16.23%
Pf_72h_%Growth_Rep1 [3, 14]: 11.70%
Pf_72h_%Growth_Rep2 [3, 15]: 10.95%

CCCC[C@H]1C(=O)O[C@H](C)[C@H](NC(=O)c2cccc(NC=O)c2O)C(=O)O[C@@H](C)[C@@H]1OC(=O)CC(C)C [Antimycin A3]
activity at 2 µg/mL ([1]; library screen at 2 μg/mL, 120 h, % growth, replicate 1, read-out: Pf_120h_%Growth_Rep1): 45.4%
activity at 2 µg/mL ([1]; library screen at 2 μg/mL, 120 h, % growth, replicate 2, read-out: Pf_120h_%Growth_Rep2): 32%
Mean ([2]; T. gondii): 21.56
Replicate 1 ([2]; T. gondii): 30.27
Replicate 2 ([2]; T. gondii): 12.84
percent parasite growth at 2 µg/mL ([2]; library screen at 2 μg/mL, % growth, replicate 1, read-out: Tg_72h_%Growth_Rep1): 30.3%
percent parasite growth at 2 µg/mL ([2]; library screen at 2 μg/mL, % growth, replicate 2, read-out: Tg_72h_%Growth_Rep2): 12.8%
activity at 2 µg/mL ([3]; 3D7, 72 h, library screen at 2 μg/mL, 72 h, % growth, replicate 1, read-out: Pf_72h_%Growth_Rep1): 47.1%
activity at 2 µg/mL ([3]; 3D7, 72 h, library screen at 2 μg/mL, 72 h, % growth, replicate 2, read-out: Pf_72h_%Growth_Rep2): 38.8%
